ChEMBL document CHEMBL1142249, “Identification and optimization of a novel series of [2.2.1]-oxabicyclo imide-based androgen receptor antagonists” (Bioorg Med Chem Lett, 2008)

Columns and labels:
Androgen receptor [1] = biological target: T1, Androgen receptor (Homo sapiens, UniProt P10275)
T1 sequence (P10275 whole entry): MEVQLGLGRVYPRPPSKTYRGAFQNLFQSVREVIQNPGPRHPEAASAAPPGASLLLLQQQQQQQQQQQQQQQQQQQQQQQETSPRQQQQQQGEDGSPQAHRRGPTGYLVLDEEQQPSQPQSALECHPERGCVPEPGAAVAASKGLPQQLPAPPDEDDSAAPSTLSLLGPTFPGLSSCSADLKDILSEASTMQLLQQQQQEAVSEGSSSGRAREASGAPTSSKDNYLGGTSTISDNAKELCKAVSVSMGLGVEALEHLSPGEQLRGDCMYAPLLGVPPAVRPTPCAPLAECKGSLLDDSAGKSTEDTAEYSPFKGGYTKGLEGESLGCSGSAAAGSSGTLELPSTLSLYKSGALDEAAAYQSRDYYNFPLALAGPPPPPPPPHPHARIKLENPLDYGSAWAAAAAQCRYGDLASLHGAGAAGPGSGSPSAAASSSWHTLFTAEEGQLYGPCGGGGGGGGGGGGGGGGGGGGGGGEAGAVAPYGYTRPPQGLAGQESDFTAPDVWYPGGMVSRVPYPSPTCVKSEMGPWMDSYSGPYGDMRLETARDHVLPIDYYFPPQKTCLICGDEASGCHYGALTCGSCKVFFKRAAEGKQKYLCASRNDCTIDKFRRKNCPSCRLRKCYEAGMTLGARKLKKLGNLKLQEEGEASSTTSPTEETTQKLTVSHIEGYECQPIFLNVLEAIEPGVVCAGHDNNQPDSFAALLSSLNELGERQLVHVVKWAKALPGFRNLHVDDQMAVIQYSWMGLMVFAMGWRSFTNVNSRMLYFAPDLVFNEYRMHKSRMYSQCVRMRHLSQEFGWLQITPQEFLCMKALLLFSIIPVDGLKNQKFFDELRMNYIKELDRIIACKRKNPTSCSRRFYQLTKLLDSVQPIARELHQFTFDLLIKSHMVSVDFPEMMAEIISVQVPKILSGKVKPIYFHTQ
Description: Antagonist activity at human androgen receptor in MDA453 cells by alkaline phosphatase reporter gene assay

Androgen receptor [2] = biological target: T1, Androgen receptor; experiment: Displacement of [3H]DHT from human androgen receptor in MDA453 cells
[3] = Drug level in human CWR22R cells xenografted mouse plasma at 10 mg/kg, po after 1 hr on day 60; format: ADME, organism-based; design: dose 10 mg/kg, route oral; conditions: read-out: Drug uptake
[4] = Drug level in human CWR22R cells xenografted mouse plasma at 90 mg/kg, po after 24 hrs on day 60; format: ADME, organism-based; design: dose 90 mg/kg, route oral; conditions: read-out: Drug uptake
Liver microsomes = experiment: Metabolic stability in human liver microsome assessed per milligram of protein; format: ADME
[5] = Drug level in human CWR22R cells xenografted mouse plasma at 10 mg/kg, po after 24 hrs on day 60; format: ADME, organism-based; design: dose 10 mg/kg, route oral; conditions: read-out: Drug uptake
[6] = Drug level in human CWR22R cells xenografted mouse plasma at 90 mg/kg, po after 1 hr on day 60; format: ADME, organism-based; design: dose 90 mg/kg, route oral; conditions: read-out: Drug uptake
[7] = AUC (0 to 6 hrs) in BALB/c mouse at 1.0 mmol/kg, po; format: ADME, organism-based; design: dose 1 mmol/kg, time < 6 hr, route oral; conditions: plasma
[8] = Tmax in BALB/c mouse at 1.0 mmol/kg, po; format: ADME, organism-based; conditions: in vivo
[9] = Cmax in BALB/c mouse at 1.0 mmol/kg, po; format: ADME, organism-based; design: dose 1 mmol/kg, route oral; conditions: in vivo
[10] = Drug level in human CWR22R cells xenografted mouse plasma at 50 mg/kg, po after 1 hr on day 60; format: ADME, organism-based; design: dose 50 mg/kg, route oral; conditions: read-out: Drug uptake
[11] = Drug level in human CWR22R cells xenografted mouse plasma at 50 mg/kg, po after 24 hrs on day 60; format: ADME, organism-based; design: dose 50 mg/kg, route oral; conditions: read-out: Drug uptake

SMILES | IC50 (Androgen receptor [1]) | Ki (Androgen receptor [2]) | further results
O=C1[C@@H]2C3CCC(O3)[C@@H]2C(=O)N1c1cccc(C(F)(F)F)c1 | 11500 nM | 4100 nM | 
CC12CCC(C)(O1)[C@H]1C(=O)N(c3ccc(C#N)n4nccc34)C(=O)[C@H]12 | 88 nM | 18 nM | 
CC12C[C@H](O)C(C)(O1)[C@@H]1C(=O)N(c3ccc(C#N)c(I)c3)C(=O)[C@@H]12 (some centres undefined) | 10 nM | 7.18 nM | concentration at 1 h [3]: 26 µM; concentration at 24 h [4]: 23.6 µM; Stability (Liver microsomes): 0.001 mmol/min/mg; concentration at 24 h [5]: 8 µM; concentration at 1 h [6]: 55.5 µM
Cc1cc(N2C(=O)[C@@H]3C4CCC(O4)[C@@H]3C2=O)ccc1Cl | 500 nM | 77 nM | 
O=C1[C@H]2C3CCC(C3)N2C(=O)N1c1cccc(C(F)(F)F)c1 (some centres undefined) | 130 nM | 21 nM | AUC(0-t) at 6 h [7]: 11.4 µM·h; Tmax [8]: 30 min; Cmax [9]: 1.74 µM
CC12CCC(C)(O1)[C@H]1C(=O)N(c3cc(Cl)cc(Cl)c3)C(=O)[C@H]12 | 16 nM | 3 nM | 
O=C1[C@@H]2C3CCC(O3)[C@@H]2C(=O)N1c1ccc(Cl)c(Cl)c1 | 480 nM | 377 nM | 
O=C1[C@@H]2C3CCC(O3)[C@@H]2C(=O)N1c1ccc(I)c(Cl)c1 | 350 nM | 221 nM | 
CC12CCC(C)(O1)[C@H]1C(=O)N(c3c(N)ccc4nccn34)C(=O)[C@H]12 | 70 nM | 27 nM | 
CC12CCC(C)(O1)[C@H]1C(=O)N(c3c(N)ccc4ncsc34)C(=O)[C@H]12 | 120 nM | 17 nM | 
O=C1[C@@H]2C3CCC(O3)[C@@H]2C(=O)N1c1ccc(Cl)c([N+](=O)[O-])c1 | 1150 nM | 692 nM | 
O=C1[C@@H]2C3CCC(O3)[C@@H]2C(=O)N1c1ccc(Cl)c(C(F)(F)F)c1 | 3310 nM | 1110 nM | 
CSc1cc(N2C(=O)[C@@H]3[C@H](C2=O)C2(C)CCC3(C)O2)ccc1C#N | 19 nM | 3 nM | 
CC12CCC(C)(O1)[C@H]1C(=O)N(c3cccc(C(F)(F)F)c3)C(=O)[C@H]12 | 36 nM | 41 nM | 
CC12C[C@@H](O)C(C)(O1)[C@H]1C(=O)N(c3ccc(C#N)c(I)c3)C(=O)[C@H]12 (some centres undefined) | 19 nM | 2.41 nM | Stability (Liver microsomes): 0.04 mmol/min/mg
O=C1[C@@H]2C3CCC(C3)[C@@H]2C(=O)N1c1cccc(C(F)(F)F)c1 | 152 nM | 360 nM | AUC(0-t) at 6 h [7]: 0.056 µM·h; Tmax [8]: 30 min; Cmax [9]: 0.023 µM
O=C1[C@@H]2C3CCC(O3)[C@@H]2C(=O)N1c1ccc([N+](=O)[O-])c2ccccc12 | > 5000 nM | 3 nM | AUC(0-t) at 6 h [7]: 11.4 µM·h; Tmax [8]: 30 min; Cmax [9]: 100 µM
O=C1[C@@H]2C3CCC(O3)[C@@H]2C(=O)N1c1ccc(Br)c2ccccc12 | 670 nM | 53 nM | 
CC12CCC(C)(O1)[C@H]1C(=O)N(c3ccc([N+](=O)[O-])c4c(Br)cccc34)C(=O)[C@H]12 | 40 nM | 17 nM | 
COc1cc(N2C(=O)[C@@H]3[C@H](C2=O)C2(C)CCC3(C)O2)ccc1-c1cnco1 | 20 nM | 12 nM | 
CC12CCC(C)(O1)[C@H]1C(=O)N(c3cnc(C#N)c(Cl)c3)C(=O)[C@H]12 | 38 nM | 4 nM | 
CC12CCC(C)(O1)[C@H]1C(=O)N(c3ccc([N+](=O)[O-])c(C(F)(F)F)c3)C(=O)[C@H]12 | 11 nM | 17 nM | 
CC12CCC(C)(O1)[C@H]1C(=O)N(c3ccc(C#N)c(I)c3)C(=O)[C@H]12 | 7 nM | 1 nM | Stability (Liver microsomes): 0.8 mmol/min/mg
CC12CCC(C)(O1)[C@H]1C(=O)N(c3ccc(C#N)c(C(F)(F)F)c3)C(=O)[C@H]12 | 7 nM | 17 nM | 
CC(C)(C)OC(=O)N1CC2CC1[C@@H]1C(=O)N(c3ccc(C#N)c(C(F)(F)F)c3)C(=O)N21 (some centres undefined) | 774 nM | 40 nM | 
CC12CCC(O1)[C@H]1C(=O)N(c3cccc(C(F)(F)F)c3)C(=O)[C@H]12 (some centres undefined) | 343 nM | 410 nM | 
N#Cc1ccc(N2C(=O)[C@@H]3C4CCC(O4)[C@@H]3C2=O)cc1C(F)(F)F | 2860 nM | 1170 nM | 
Cc1ccc(N2C(=O)[C@@H]3C4CCC(O4)[C@@H]3C2=O)cc1Cl | 2290 nM | 486 nM | 
CC12CCC(C)(O1)[C@H]1C(=O)N(c3ccc(C#N)c4nsnc34)C(=O)[C@H]12 | 16 nM | 3 nM | 
CC(O)(CS(=O)(=O)c1ccc(F)cc1)C(=O)Nc1ccc(C#N)c(C(F)(F)F)c1 (centres undefined) [BICALUTAMIDE] |  |  | AUC(0-t) at 6 h [7]: 786 µM·h; concentration at 1 h [10]: 48.5 µM; concentration at 24 h [11]: 86 µM; Tmax [8]: 30 min; Cmax [9]: 110 µM
